In ChEMBL document CHEMBL1201862, “PubChem BioAssay data set” (2004):
Active and inactive are the calls of the source.

What was measured:
[1] = target: T1, Low molecular weight phosphotyrosine protein phosphatase (Homo sapiens, UniProt P24666); type: functional; details: read-out: IC50_Mean;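 further: Dose-response confirmation assay measuring inhibition of LMPTP enzyme activity by fluorescence intensity read-out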
T1 sequence (P24666 whole entry): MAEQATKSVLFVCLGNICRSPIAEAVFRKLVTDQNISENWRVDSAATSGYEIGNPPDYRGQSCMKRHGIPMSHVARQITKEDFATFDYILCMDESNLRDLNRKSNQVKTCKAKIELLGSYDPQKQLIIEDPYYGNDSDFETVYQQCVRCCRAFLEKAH

Cytochrome P450 1A2 = target: T2, Cytochrome P450 1A2 (Homo sapiens, UniProt P05177);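 further: PubChem cytochrome P450 panel assay, CYP1A2 panel member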
T2 sequence (P05177 whole entry): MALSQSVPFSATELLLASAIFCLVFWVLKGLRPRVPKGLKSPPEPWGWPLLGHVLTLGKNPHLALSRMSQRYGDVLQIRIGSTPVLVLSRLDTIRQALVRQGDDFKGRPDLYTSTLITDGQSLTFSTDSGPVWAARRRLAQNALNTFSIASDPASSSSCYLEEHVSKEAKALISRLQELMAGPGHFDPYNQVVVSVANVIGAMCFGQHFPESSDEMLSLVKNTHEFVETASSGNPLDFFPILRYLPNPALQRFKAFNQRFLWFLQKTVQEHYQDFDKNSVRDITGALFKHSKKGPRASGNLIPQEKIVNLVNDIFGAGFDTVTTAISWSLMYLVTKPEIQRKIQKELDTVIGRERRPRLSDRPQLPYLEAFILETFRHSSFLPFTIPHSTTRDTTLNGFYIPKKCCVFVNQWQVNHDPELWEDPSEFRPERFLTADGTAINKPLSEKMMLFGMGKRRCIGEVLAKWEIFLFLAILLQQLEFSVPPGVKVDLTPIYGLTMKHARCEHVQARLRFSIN

Vero [2] = experiment: cells; type: functional, cell-based; details: Chlorocebus sabaeus
Vero [3] = experiment: cells; type: functional; details: Chlorocebus sabaeus
[4] = target: Voltage-dependent T-type calcium channel subunit alpha-1H (Homo sapiens, UniProt O95180); type: functional;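 further: channel activity triggered by adding a high calcium stimulation buffer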
Melanocortin receptor 4 = Melanocortin receptor 4 (Homo sapiens, UniProt P32245); type: functional, cell-based;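 further: Cell-based assay with luminescence read-out, confirmatory dose-response testing for agonist activity of biased ligands at MC4R; human U2OS cells with tagged receptor and beta-arrestin; potency of agonists that increase receptor coupling to beta-arrestin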
[5] = system: Streptococcus sp. 'group A'; experiment: Streptococcus pyogenes SK(-)GAS viability under kanamycin – luminescence, BacTiterGlo, confirmation, counter-screen for streptokinase expression inhibitor project, dose response (AID 1900); type: functional, organism-based
Streptokinase A = target: T3, Streptokinase A (Streptococcus pyogenes serotype M1, UniProt P10520); experiment: viability-normalized secreted streptokinase activity reduction – plasminogen activation absorbance, OD405, dose response (AID 1914); type: functional, Streptococcus pyogenes M1 GAS;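 further: secreted streptokinase activity via plasminogen activation per viability signal from cell pellet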
T3 sequence (P10520 whole entry): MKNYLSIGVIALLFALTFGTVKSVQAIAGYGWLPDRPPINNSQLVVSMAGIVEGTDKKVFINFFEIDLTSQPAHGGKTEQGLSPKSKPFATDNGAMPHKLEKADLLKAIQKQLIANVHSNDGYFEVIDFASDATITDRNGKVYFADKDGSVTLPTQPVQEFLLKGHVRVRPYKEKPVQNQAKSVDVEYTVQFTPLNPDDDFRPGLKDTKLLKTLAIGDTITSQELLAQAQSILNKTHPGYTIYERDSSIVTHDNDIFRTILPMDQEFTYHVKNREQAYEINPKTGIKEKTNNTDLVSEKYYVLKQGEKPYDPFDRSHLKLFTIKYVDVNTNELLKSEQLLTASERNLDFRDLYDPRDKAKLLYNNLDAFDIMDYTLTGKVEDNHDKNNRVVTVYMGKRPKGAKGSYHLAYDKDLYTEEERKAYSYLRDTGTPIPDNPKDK

Streptococcus = experiment: GAS UMAA2166 growth inhibition – luminescence, BacTiterGlo, counter-screen for streptokinase expression inhibitor project, dose response (AID 1915); type: functional, organism-based;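 further: potency for reduction of bacterial viability or growth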
Beta-galactosidase = Beta-galactosidase (Escherichia coli, UniProt Q8VNN2); experiment: detection-enzyme interference by beta-gal modulators – biochemical, E. coli enzyme, set 3, artefact control for CCR6 antagonist project, dose response (AID 504712); type: functional
[6] = Luminescence Cell-Based Dose Retest to Confirm Inhibitors of Cancer Stem Cells. [Related pubchem assays (depositor defined):AID2717, AID2721]; type: functional; details: Homo sapiens
[7] = HEK-293T viability loss after treatment – luminescence, T-cell screen hits, cytotoxicity control for TCR NF-kB inhibitor project, dose response (AID 489026); type: functional, cell-based;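 further: cells exposed to compound about 14 hours before the viability readout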
Paired box protein Pax-8 = Paired box protein Pax-8 (Homo sapiens, UniProt Q06710); experiment: PAX8 transcriptional activity inhibition in RMG-I – RMG-I cells, luciferase, cherry-pick, dose response (AID 687027); type: functional, cell-based;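 further: luciferase reporter driven by Pax8 target thyroperoxidase promoter measured by SteadyGlo luminescence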
H9c2 = experiment: cells; type: functional, cell-based; details: Rattus norvegicus, H9c2, Myocardium;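 further: confirmatory concentration-response retest of ultra-high-throughput screening hits for modulation of myocardial damage; cell death induced by hydrogen peroxide oxidative stress; compound pretreatment for 60 min then peroxide exposure for 2 h; potency is for protecting the cells against peroxide damage rather than for killing them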
[8] = viability of uninfected HEp-2 cells – cell-based, HTS, cytotoxicity control for RSV inhibitor project, dose response (AID 2410); type: functional; details: human respiratory syncytial virus
[9] = target: T4, Rac GTPase-activating protein 1 (Homo sapiens, UniProt Q9H0H5); experiment: blockers of MgcRacGAP-driven Rac1 GTP hydrolysis – biochemical, ADP Hunter fluorescence, primary and confirmatory, confirmation (AID 624330); type: functional
T4 sequence (Q9H0H5 whole entry): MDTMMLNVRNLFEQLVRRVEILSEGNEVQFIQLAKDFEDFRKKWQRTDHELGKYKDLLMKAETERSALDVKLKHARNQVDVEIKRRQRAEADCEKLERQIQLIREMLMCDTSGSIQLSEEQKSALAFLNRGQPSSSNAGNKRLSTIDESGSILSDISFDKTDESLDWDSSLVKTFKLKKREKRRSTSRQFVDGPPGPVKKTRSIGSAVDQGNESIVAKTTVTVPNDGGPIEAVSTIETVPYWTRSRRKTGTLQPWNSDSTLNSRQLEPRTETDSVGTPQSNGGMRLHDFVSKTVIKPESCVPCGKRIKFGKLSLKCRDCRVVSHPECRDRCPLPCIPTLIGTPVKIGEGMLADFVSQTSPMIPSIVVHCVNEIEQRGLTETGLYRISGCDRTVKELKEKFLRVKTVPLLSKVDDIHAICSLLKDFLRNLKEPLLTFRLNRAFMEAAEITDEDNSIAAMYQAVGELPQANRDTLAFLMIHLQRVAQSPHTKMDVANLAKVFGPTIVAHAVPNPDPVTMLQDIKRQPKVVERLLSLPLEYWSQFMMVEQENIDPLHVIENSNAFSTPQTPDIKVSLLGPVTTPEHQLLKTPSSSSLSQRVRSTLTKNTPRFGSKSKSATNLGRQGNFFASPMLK

Cytochrome P450 3A4 = Cytochrome P450 3A4 (Homo sapiens, UniProt P08684); details: Potency;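 further: confirmatory qHTS run detecting inhibitors and substrates of CYP3A4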
Cytochrome P450 2D6 = Cytochrome P450 2D6 (Homo sapiens, UniProt P10635);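 further: CYP2D6 member of a cytochrome P450 panel assay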
[10] = Trypanosoma cruzi growth suppression in host cells – NIH3T3 host cells, beta-gal luminescence, confirmation (AID 2044); type: functional, cell-based;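 further: intracellular parasites grown in NIH/3T3 mouse fibroblasts as host cells; luminescent beta-galactosidase reporter signal from transgenic T. cruzi replicating inside host cells; inhibitors lower the luminescence signal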
[11] = NIH3T3 cell viability loss – ATP luminescence, mouse fibroblasts, counter-screen, dose response (AID 2010); type: functional, cell-based;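 further: cells exposed to compound for about 90 hours before reading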
[12] = target: T5, Ubiquitin-conjugating enzyme E2 N (Homo sapiens, UniProt P61088); type: functional;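 further: Dose-response confirmation in a TR-FRET assay detecting UBC13-driven polyubiquitin chain formation, inhibition measured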
T5 sequence (P61088 whole entry): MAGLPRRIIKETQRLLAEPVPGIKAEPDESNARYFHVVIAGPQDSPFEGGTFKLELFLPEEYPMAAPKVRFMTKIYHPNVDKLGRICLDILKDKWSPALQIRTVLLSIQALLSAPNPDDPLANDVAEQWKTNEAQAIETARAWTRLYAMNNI

Cytochrome P450 2C19 = Cytochrome P450 2C19 (Homo sapiens, UniProt P33261); experiment: Cytochrome panel assay with activity outcomes. Panel member name: p450-cyp2c19 Compounds with AC50 equal or less than 10 uM are considered active; type: functional
[13] = target: T6, Heat shock factor protein 1 (Mus musculus, UniProt P38532); experiment: enhancement of HSF1-driven luciferase signal – cell-based, NIH3T3, luminescence, dose retest, confirmation (AID 435004); type: functional;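 further: stress induced by proteasome inhibitor MG132 added 30 min after compound; luciferase reporter driven by HSF1 response element in NIH3T3 cells; actives raise luminescence as potentiators of the MG132 stress response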
T6 sequence (P38532 whole entry): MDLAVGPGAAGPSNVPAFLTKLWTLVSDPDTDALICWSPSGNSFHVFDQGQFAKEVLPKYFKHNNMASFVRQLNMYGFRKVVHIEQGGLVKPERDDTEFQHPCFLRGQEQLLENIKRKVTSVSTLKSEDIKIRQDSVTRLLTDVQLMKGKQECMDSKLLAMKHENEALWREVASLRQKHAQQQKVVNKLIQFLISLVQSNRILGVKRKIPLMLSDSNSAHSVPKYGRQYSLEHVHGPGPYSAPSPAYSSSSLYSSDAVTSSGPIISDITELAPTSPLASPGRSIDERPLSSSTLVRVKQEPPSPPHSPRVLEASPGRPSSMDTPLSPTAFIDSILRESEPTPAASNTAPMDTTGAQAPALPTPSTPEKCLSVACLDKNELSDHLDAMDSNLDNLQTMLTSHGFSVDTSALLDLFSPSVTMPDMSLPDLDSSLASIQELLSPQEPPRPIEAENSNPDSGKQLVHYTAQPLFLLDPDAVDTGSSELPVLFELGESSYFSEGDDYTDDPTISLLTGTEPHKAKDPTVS

[14] = target: T7, Carboxy-terminal domain RNA polymerase II polypeptide A small phosphatase 1 (Homo sapiens, UniProt Q9GZU7); experiment: CTDSP1 inhibitors, concentration-response, biochemical, absorbance readout, ultra-high-throughput screen actives (AID 540297); type: functional
T7 sequence (Q9GZU7 whole entry): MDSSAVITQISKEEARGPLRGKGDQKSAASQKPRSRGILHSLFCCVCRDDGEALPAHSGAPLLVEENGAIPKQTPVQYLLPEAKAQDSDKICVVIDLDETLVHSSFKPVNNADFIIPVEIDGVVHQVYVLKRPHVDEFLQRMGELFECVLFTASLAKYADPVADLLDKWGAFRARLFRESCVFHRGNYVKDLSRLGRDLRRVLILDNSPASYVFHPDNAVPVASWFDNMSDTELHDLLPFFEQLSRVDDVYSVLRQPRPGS

Voltage-dependent T-type calcium channel subunit alpha-1H, sequence (O95180 whole entry): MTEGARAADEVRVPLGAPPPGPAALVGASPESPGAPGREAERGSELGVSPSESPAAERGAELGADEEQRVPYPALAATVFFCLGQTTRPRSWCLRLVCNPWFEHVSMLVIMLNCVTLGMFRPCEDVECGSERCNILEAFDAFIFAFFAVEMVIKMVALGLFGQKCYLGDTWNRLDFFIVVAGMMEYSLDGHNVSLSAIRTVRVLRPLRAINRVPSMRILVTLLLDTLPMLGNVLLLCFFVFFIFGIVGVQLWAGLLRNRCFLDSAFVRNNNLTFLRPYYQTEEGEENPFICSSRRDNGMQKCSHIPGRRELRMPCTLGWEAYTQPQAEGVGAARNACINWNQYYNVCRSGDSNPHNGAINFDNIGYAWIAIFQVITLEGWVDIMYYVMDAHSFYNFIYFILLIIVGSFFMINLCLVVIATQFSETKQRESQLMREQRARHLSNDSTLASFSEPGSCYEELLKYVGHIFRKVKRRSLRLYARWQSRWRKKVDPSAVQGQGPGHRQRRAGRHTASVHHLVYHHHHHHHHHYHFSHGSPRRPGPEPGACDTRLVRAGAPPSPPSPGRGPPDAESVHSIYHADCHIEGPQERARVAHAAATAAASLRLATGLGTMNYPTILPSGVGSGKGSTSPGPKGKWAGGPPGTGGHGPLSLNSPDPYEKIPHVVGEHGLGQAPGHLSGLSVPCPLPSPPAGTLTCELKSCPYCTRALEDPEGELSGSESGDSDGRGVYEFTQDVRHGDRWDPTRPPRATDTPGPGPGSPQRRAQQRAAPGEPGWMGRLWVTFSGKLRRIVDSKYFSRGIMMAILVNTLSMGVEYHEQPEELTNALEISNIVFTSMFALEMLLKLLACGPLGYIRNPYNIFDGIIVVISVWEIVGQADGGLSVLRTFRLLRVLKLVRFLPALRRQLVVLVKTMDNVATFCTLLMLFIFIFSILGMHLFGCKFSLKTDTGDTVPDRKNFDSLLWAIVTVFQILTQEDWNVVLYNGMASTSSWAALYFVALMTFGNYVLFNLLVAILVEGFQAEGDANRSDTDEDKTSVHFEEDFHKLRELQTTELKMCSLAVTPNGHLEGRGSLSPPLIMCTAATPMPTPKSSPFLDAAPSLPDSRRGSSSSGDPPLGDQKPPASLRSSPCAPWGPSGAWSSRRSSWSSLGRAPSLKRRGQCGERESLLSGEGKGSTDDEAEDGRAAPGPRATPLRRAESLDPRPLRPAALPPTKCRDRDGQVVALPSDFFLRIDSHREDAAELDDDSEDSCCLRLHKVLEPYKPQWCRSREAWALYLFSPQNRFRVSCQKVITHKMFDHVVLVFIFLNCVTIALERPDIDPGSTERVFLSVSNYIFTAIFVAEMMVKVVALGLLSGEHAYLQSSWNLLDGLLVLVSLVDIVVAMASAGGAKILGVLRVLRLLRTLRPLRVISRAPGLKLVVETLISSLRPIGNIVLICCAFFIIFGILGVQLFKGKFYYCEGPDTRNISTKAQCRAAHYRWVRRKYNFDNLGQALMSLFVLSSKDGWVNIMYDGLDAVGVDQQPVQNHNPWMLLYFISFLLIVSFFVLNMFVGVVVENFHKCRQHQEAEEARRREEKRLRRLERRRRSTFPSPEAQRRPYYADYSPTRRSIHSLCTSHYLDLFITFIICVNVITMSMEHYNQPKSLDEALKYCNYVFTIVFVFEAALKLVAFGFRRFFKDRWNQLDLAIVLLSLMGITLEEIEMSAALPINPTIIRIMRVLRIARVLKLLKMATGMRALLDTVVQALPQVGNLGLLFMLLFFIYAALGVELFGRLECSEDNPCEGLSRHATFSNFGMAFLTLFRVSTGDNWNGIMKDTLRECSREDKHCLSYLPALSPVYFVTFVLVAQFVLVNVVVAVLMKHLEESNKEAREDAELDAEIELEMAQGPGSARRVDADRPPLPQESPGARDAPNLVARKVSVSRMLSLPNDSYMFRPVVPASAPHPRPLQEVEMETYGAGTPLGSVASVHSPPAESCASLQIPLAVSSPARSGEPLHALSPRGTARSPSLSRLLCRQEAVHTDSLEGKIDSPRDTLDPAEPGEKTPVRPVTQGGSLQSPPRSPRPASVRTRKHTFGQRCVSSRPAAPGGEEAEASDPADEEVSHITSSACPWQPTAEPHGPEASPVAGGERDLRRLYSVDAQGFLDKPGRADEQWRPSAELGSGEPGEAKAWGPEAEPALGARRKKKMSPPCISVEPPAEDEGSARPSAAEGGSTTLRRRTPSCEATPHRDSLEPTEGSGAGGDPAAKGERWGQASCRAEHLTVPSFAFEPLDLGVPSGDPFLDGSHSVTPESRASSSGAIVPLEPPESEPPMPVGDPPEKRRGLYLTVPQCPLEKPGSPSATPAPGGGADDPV
Beta-galactosidase, sequence (Q8VNN2 whole entry): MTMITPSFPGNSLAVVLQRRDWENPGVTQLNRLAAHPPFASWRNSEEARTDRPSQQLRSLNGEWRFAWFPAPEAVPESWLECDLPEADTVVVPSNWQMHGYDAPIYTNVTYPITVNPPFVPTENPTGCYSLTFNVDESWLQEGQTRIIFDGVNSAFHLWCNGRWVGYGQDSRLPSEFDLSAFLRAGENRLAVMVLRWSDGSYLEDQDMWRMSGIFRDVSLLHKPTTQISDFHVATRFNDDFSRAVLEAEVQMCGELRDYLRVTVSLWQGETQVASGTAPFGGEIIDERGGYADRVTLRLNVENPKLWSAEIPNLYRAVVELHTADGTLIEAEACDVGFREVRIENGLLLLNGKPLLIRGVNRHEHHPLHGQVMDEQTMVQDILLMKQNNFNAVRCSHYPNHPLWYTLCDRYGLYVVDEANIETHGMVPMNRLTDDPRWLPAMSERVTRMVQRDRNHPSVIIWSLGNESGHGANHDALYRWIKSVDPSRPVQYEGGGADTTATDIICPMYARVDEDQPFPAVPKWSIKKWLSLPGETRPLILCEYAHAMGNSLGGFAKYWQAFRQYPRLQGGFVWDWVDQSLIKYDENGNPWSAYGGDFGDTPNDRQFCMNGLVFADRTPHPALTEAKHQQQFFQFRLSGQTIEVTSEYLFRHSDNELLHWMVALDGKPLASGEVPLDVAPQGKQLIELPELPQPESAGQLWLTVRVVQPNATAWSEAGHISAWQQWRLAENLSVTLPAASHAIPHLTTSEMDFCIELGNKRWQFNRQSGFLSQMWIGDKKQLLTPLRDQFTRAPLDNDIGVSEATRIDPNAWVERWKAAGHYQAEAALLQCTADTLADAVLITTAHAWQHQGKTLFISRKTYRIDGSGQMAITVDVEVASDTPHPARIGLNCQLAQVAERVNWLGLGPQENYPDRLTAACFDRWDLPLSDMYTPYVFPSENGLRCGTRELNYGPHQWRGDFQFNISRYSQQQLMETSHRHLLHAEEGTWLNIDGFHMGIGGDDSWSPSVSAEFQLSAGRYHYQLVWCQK
Cytochrome P450 2D6, sequence (P10635 whole entry): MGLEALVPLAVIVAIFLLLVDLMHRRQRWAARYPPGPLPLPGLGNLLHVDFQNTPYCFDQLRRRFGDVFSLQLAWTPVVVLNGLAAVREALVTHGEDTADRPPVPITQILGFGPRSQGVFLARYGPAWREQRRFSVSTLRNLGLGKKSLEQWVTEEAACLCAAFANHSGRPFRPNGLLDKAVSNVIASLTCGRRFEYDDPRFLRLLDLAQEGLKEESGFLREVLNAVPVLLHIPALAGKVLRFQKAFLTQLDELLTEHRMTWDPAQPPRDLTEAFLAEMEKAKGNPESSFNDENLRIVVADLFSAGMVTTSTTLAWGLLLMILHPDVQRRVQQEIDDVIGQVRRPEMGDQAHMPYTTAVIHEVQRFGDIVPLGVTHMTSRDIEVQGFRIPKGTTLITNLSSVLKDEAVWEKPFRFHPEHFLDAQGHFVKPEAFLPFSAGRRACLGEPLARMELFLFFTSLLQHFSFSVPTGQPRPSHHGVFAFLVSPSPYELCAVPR
Melanocortin receptor 4, sequence (P32245 whole entry): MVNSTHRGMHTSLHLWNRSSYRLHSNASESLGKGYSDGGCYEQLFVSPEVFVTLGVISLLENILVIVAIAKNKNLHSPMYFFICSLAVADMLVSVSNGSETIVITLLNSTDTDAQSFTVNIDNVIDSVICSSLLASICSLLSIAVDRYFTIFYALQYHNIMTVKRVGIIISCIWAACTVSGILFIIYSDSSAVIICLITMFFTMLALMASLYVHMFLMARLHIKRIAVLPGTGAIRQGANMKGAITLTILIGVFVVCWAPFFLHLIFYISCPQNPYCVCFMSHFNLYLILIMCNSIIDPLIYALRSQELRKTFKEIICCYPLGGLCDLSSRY
Cytochrome P450 2C19, sequence (P33261 whole entry): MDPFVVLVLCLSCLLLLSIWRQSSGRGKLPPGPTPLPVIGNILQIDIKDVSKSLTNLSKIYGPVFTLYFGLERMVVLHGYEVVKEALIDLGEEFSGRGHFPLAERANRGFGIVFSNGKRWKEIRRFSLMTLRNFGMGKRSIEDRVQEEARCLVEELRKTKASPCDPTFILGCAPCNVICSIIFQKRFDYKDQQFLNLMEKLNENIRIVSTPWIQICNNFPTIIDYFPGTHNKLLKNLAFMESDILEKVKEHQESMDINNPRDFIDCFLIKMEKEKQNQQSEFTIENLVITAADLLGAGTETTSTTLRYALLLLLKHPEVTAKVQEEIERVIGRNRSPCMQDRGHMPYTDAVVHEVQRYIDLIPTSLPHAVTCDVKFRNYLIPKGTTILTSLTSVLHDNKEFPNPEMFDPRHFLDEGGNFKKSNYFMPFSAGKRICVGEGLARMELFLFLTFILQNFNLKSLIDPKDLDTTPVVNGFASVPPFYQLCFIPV

O=C(N/N=C/C=C/c1ccccc1)c1cc2c(ccc3ccccc32)o1
IC50 [1]: 9.73 µM (active)
AC50 (Cytochrome P450 1A2): 0.0447 µM (inconclusive)

COc1ccc(CCn2c(=N)c(C(=O)NCc3ccco3)cc3c(=O)n4ccccc4nc32)cc1
IC50 [1]: 25.7 µM (inactive)
AC50 (Cytochrome P450 1A2): 15.8 µM (inconclusive)

COc1ccc(/C=C2\SC(=S)N(CCC(=O)NCCc3ccc(O)cc3)C2=O)cc1
IC50 (Vero [2]): > 25 µM (active)
CC50 (Vero [3]): > 25 µM (active)

O=C1CC(N2CCN(c3ccccn3)CC2)C(=O)N1CC(c1ccccc1)c1ccccc1 (stereo not given)
EC50 [4]: 5.85 µM (active)

Fc1ccc(Cn2nnnc2C(c2ccc(Cl)cc2)N2CCSCC2)cc1 (stereo not given)
EC50 [4]: 9.78 µM (active)

CC(=O)Nc1cc(-c2cccc(F)c2)cn2c(-c3ccc(F)c(Cl)c3)cnc12
EC50 (Melanocortin receptor 4): > 89.2 µM (inactive)

Cc1ccc2nc(N3C(=O)CNC3=S)sc2c1
EC50 [5]: 4.9 µM (active)
EC50 (Streptokinase A): > 150 µM (not active)
EC50 (Streptococcus): 11.2 µM (active)
IC50 (Beta-galactosidase): > 66.6 µM (inactive)

C[C@]12CC[C@H](O)C[C@H]1CC[C@@H]1[C@@H]2CC[C@]2(C)[C@@H](C3=CC(=O)OC3)CC[C@]12O [DIGITOXIGENIN]
AC50 [6]: 0.467 µM (active)
IC50 [7]: > 80 µM (inactive)
IC50 (Vero [2]): < 0.05 µM (active)
CC50 (Vero [3]): 1.45 µM (active)
AC50 (Paired box protein Pax-8): 1.38 µM (active)

COc1ccc(-c2cc(NC(C)=O)c3ncc(-c4cccc(C(C)=O)c4)n3c2)cc1OC
IC50 (H9c2): > 79 µM (inactive)
EC50 (Melanocortin receptor 4): > 89.2 µM (inactive)

C[C@]12CC[C@H]3C(=CCc4cc(O)ccc43)[C@@H]1CCC2=O [EQUILIN]
CC50 [8]: 22.6 µM (active)
IC50 [9]: 94.6 µM (active)
AC50 (Cytochrome P450 3A4): 39.8 µM (inconclusive)

CN1CCc2c(sc3c2c(=O)n(-c2ccccc2)c2nncn32)C1
AC50 (Cytochrome P450 2D6): inconclusive

N=C(N)N/N=C/c1ccc2cccc(OCc3ccccc3)c2n1
EC50 [10]: 0.685 µM (active)
EC50 [11]: > 60 µM (not active)
IC50 [12]: > 20 µM (inactive)
IC50 (Beta-galactosidase): > 66.6 µM (inactive)

Cc1c(Cl)c(S(N)(=O)=O)cc(S(N)(=O)=O)c1NC(=O)c1ccc(Cl)cc1
AC50 (Cytochrome P450 2C19): inconclusive
AC50 (Cytochrome P450 2D6): inconclusive

O=S(=O)(NCCc1csc(-c2ccccc2)n1)c1ccc2c(c1)OCCO2
EC50 [4]: 23.2 µM (active)

O=C(O)[C@@H](c1ccccc1)[C@@H](C(=O)O)c1ccccc1
AC50 (Cytochrome P450 2D6): inconclusive

Sc1nnc(-c2ccccc2)n1/N=C/c1ccc(-c2ccccc2Cl)o1
AC50 [6]: 4 µM (active)
EC50 [13]: > 260 µM (inactive)
IC50 (Vero [2]): 2.17 µM (active)

COC(=O)COc1ccc2oc(=O)cc(-c3cc4cccc(OC)c4o3)c2c1
IC50 [14]: 9.43 µM (active)
IC50 [1]: 19.1 µM (active)

Cc1cc(C)nc(Nc2nc(C(N)Cc3ccc(Cl)cc3)cs2)n1 (stereo not given)
EC50 (Melanocortin receptor 4): > 89.2 µM (inactive)

CC(=O)N1c2ccc(S(=O)(=O)N3CCCC(C(=O)Nc4cccc(Cl)c4)C3)cc2CC1C (stereo not given)
IC50 (Beta-galactosidase): > 66.6 µM (inactive)

CO[C@@H]1COC(=O)CC=C[C@@H](C)[C@@H]2C=C[C@H](O)[C@@H](COC(=O)[C@H](C)NC(=O)CC=C[C@H]1C)O2
AC50 (Cytochrome P450 2D6): inconclusive
